Series [1] can be described thus: Physicochemical properties: solubility.
Series [2] has as its system VEGF promoter. Description: VEGF transcription inhibitory activity (VEGF-PLAP reporter, U251/1-8 cells under hypoxic conditions). Type of series: cell-based. To be noted: Homo sapiens, U-251, hypoxic (2% O2) incubator 18 hours, n=2 to 3. An excerpt:
In order to prepare a reporter system in which transcription from a VEGF promoter is reflected, a VEGF promoter sequence was cloned and inserted into a placental alkaline phosphatase (PLAP) vector to construct a reporter vector.
In order to obtain a promoter region of human VEGF, a VEGF genome was cloned from a phage library. Based on VEGF cDNA (GenBank accession number: X62568), a PCR primer in the sequence described as SEQ ID NO: 1 or SEQ ID NO: 2 was designed to conduct PCR, thereby obtaining about a fragment of 340 bp. A human genomic phage library (human genomic library, Clontech) was screened using this fragment as a probe to obtain pUC18-VEGFA containing a VEGF5′ franking region of about 5.4 kb. This pUC18-VEGFA was cut with Kpn I/Nhe I to obtain a VEGF promoter region of about 2.3 kb, and the region was inserted into the multicloning site Kpn I/Nhe I of the placental alkaline phosphatase (PLAP) reporter vector (Goto et al., Mol. Pharmacol., 49, 860-873, 1996) to construct a VEGF-PLAP vector.
The above-described VEGF-PLAP vector was introduced into U251 cells cultured in a Dulbecco's modified Eagle's medium containing 10% fetal bovine serum (DMEM, manufactured by Sigma Co.), and cultured in the presence of 1 mg/mL G418 (Merck & Co., Inc.) to establish a G418-resistant stable clone (U251/1-8 cells).
As in a report by Minchenko et al. (Cell. Mol. Biol. Res., 40, 35-39, 1994), U251/1-8 cells were confirmed to be a reporter system which secretes PLAP into a culture medium under hypoxic conditions (2% O2 incubator), and in which transcription from a VEGF promoter is reflected. A compound inhibiting VEGF production induced by hypoxic stimulation was screened using this clone.
In order to eliminate influence of the alkali phosphatase in the serum, the U251/1-8 cells were washed with a sufficient amount of PBS (Phosphate buffered saline) twice, and treated at 65° C. for 20 minutes to inactivate the alkaline phosphatase in the serum. 4×10^4 cells/180 μL per well of the cells diluted in the DMEM culture medium containing 10% of this serum were plated in a 96-well plate.
The cells were cultured in a CO2 incubator (5% CO2) at 37° C. overnight, and 20 μL of the above-described culture solution containing the test compound at threefold serial dilutions was added. Subsequently, the cells were cultured in hypoxic (2% O2) incubator for 18 hours. To measure the PLAP activity in the culture supernatant liquid, 10 μL of the culture supernatant liquid was added to 50 μL of a 0.28 M Na2CO3—NaHCO3 buffer solution (pH 10.0, 8.0 mM MgSO4), and finally 50 μL of an alkaline phosphatase substrate (Lumistain, Genome Science Laboratories Co., Ltd.) was added thereto. After the reaction for one hour, chemiluminescence was detected using a microplate reader (PerkinElmer) to measure the PLAP activity as the alkaline phosphatase activity. The PLAP activity under normoxic conditions was defined as 0%, the PLAP activity of the cells when treated under hypoxic conditions was defined as 100%, and the concentration for inhibiting 50% of the PLAP activity was defined as the IC50 value of PLAP. The IC50 values of the 6-deoxy 11107D derivatives shown in examples were determined (n=2 to 3).

The subject of series [3] is WiDr human colon cancer cells. The series can be described thus: Action of inhibiting proliferation of WiDr human colon cancer cells (MTT). Type of series: cell-based. To be noted: 72 h, three days, n=2 to 3, read-out: WiDr human colon cancer cell proliferation inhibitory activity (IC50: nM). On the procedure:
2×10^3 cells/well of WiDr human colon cancer cells cultured in a Dulbecco's modified Eagle's medium containing 10% fetal bovine serum, penicillin (100 units/mL) and streptomycin (100 μg/mL) (DMEM, manufactured by Sigma Co.) were plated in a 96-well plate. The cells were cultured in a CO2 incubator overnight, and 20 μL of the above-described culture solution containing the test compound at threefold serial dilutions was added for culturing the cells. After three days, 50 μL of a 3.3 mg/mL MTT solution was added, and the cells were further cultured for one hour. Then, formazan generated by reduction using living cells was extracted with 100 μL of DMSO to measure the absorbance (A540/A660), which was used as an index of the number of living cells.
The concentration for inhibiting 50% of proliferation of WiDr human colon cancer cells (IC50 value) of the compound of the formula (I) was determined (n=2 to 3).

A short description of series [4]: Stability in an aqueous solution (HPLC). To be noted: pH 7 Britton-Robinson buffer solution, 25° C., 24 hours. Type of series: physicochemical. Here is the method:
The compound of the formula (I) was dissolved in DMSO at a concentration of 10 to 20 mM, and the solution was diluted with a pH 7 Britton-Robinson buffer solution to about 500-fold. This solution was used as a sample solution, and was incubated at 25° C. for 24 hours.
The sample solution before and after the incubation was analyzed using high-performance liquid chromatography to obtain a chromatogram. The percentage of the compound remaining in the sample solution after the incubation was determined from the peak area of the chromatogram.

The test system of series [5] is WiDr human colon tumors. The series can be described thus: Solid cancer growth inhibitory action, WiDr cells subcutaneously implanted in nude mice. Conditions: 1.25 mg/kg/day intravenously, 15th day, control group as 100%. It is filed as in vivo, nude mouse. Here is the method:
(§1) In order to examine the solid cancer growth inhibitory activity of the compound of the formula (I) in vivo, WiDr human colon cancer cells were subcutaneously implanted into the body of each nude mouse. […] The control group consisted of ten mice, and the 6-deoxy 11107D derivative-administration group consisted of five mice. The derivative was intravenously injected at 0.625 mg/kg/day, 1.25 mg/kg/day, 2.5 mg/kg/day, 5 mg/kg/day, or 10 mg/kg/day to each mouse of the administration group, and a vehicle was administered to each mouse of the control group.
(§2) The tumor volumes on the 15th day were measured to determine the relative tumor weight ratio (T/C %), based on the tumor weight of each mouse of the control group as 100%. The body weights on the day of the start of administration, 5th day, 8th day, 12th day and 15th (or 16th) day were measured to examine the relative body weight variations in the case of administering the representative compounds, based on the body weights on the day of the start of administration as 100%. The minimum relative body weight ratios, which are the relative body weight ratios on the day when the body weights were lightest, are shown in Table 3.

The nature of series [6]: Body weight reduction (acute toxicity) in the WiDr nude mouse test. Conditions: 1.25 mg/kg/day intravenously, nude mice, day when body weights were lightest, relative to day of start of administration. It is filed as in vivo. Here is the method: as §1, §2

For the compound `CCC(O)C(C)C1OC1CC(C)/C=C/C=C(\C)C1OC(=O)CC(O)CCC(C)C(OC(C)=O)/C=C/C1C` (centres unmarked) [6-deoxy 11107B], the “Solubility in organic solvents” value in series [1] (dimethyl sulfoxide, pyridine, methanol, acetone) was “soluble in dimethyl sulfoxide, pyridine, methanol, and acetone”. Besides, in series [1] (water), the Solubility in water entry is “poorly soluble in water”.
`CCC(O)C(C)C1OC1CC(C)(O)/C=C/C=C(\C)C1OC(=O)CC(O)CCC(C)C(OC(=O)N2CCN(C)CC2)/C=C/C1C` (centres unmarked) [Compound 18, (8E,12E,14E)-3,16,21-trihydroxy-6,10,12,16,20-pentamethyl-7-((4-methylpiperazin-1-yl)carbonyl)oxy-18,19-epoxytricosa-8,12,14-trien-11-olide]: the IC50 was 1 nM in series [2] and 0.5 nM in series [3]. The “Remaining percentage (%)” value in series [4] is 95.0%.
On the same counts, the results for `CCC(O)C(C)C1OC1CC(C)(O)/C=C/C=C(\C)C1OC(=O)CC(O)CCC(C)C(OC(=O)N2CCCN(C)CC2)/C=C/C1C` (centres unmarked) [Compound 19, (8E,12E,14E)-3,16,21-trihydroxy-6,10,12,16,20-pentamethyl-7-((4-methylhomopiperazin-1-yl)carbonyl)oxy-18,19-epoxytricosa-8,12,14-trien-11-olide] are 1.1 nM, 0.3 nM and 95.5%.
As to `CCC(O)C(C)C1OC1CC(C)(O)/C=C/C=C(\C)C1OC(=O)CC(O)CCC(C)C(OC(=O)N(C)CCN(CC)CC)/C=C/C1C` (centres unmarked) [Compound 20, (8E,12E,14E)-7-(N-(2-(N′,N′-diethylamino)ethyl-N-methyl)carbamoyloxy)-3,16,21-trihydroxy-6,10,12,16,20-pentamethyl-18,19-epoxytricosa-8,12,14-trien-11-olide], the IC50 in series [2] was determined as 1.1 nM; in series [3], 0.2 nM. Besides, the “Remaining percentage (%)” value in series [4] was 95.6%.
On to `CCC(O)C(C)C1OC1CC(C)(O)/C=C/C=C(\C)C1OC(=O)CC(O)CCC(C)C(OC(=O)N2CCC(N3CCCCC3)CC2)/C=C/C1C` (centres unmarked) [Compound 21, (8E,12E,14E)-3,16,21-trihydroxy-6,10,12,16,20-pentamethyl-7-((4-(piperidin-1-yl)piperidin-1-yl)carbonyl)oxy-18,19-epoxytricosa-8,12,14-trien-11-olide], for which the IC50 in series [2] was found to be 2 nM; in series [3] it was 0.6 nM. The “Remaining percentage (%)” value in series [4] was found to be 94.8%.
On the same counts, the results for `CCC(O)C(C)C1OC1CC(C)(O)/C=C/C=C(\C)C1OC(=O)CC(O)CCC(C)C(OC(=O)NCCN(CC)CC)/C=C/C1C` (centres unmarked) [Compound 22, (8E,12E,14E)-7-(N-(2-(N′,N′-diethylamino)ethyl)carbamoyloxy)-3,16,21-trihydroxy-6,10,12,16,20-pentamethyl-18,19-epoxytricosa-8,12,14-trien-11-olide] are 2.5 nM, 1.1 nM and 95.4%.
With `CCC(O)C(C)C1OC1CC(C)(O)/C=C/C=C(\C)C1OC(=O)CC(O)CCC(C)C(OC(=O)N2CCN(CC(C)(C)C)CC2)/C=C/C1C` (centres unmarked) [Compound 23, (8E,12E,14E)-7-((4-(2,2-dimethylpropyl)piperazin-1-yl)carbonyl)oxy-3,16,21-trihydroxy-6,10,12,16,20-pentamethyl-18,19-epoxytricosa-8,12,14-trien-11-olide], the IC50 in series [2] came to 14.7 nM; in series [3], 3.8 nM.
On the same counts, the results for `CCC(O)C(C)C1OC1CC(C)(O)/C=C/C=C(\C)C1OC(=O)CC(O)CCC(C)C(OC(=O)N(C)C2CCN(C)CC2)/C=C/C1C` (centres unmarked) [Compound 29, (8E,12E,14E)-3,16,21-trihydroxy-6,10,12,16,20-pentamethyl-7-(N-methyl-N-(1-methylpiperidin-4-yl)carbamoyloxy)-18,19-epoxytricosa-8,12,14-trien-11-olide] are 1.3 nM and 0.3 nM.
With `CCC(O)C(C)C1OC1CC(C)(O)/C=C/C=C(\C)C1OC(=O)CC(O)CCC(C)C(OC(=O)N2CCCN(C(C)C)CC2)/C=C/C1C` (centres unmarked) [Compound 39, (8E,12E,14E)-3,16,21-trihydroxy-7-((4-isopropylhomopiperazin-1-yl)carbonyl)oxy-6,10,12,16,20-pentamethyl-18,19-epoxytricosa-8,12,14-trien-11-olide], the IC50 in series [2] was determined as 1.3 nM; in series [3], 0.5 nM. For the same compound, the “Remaining percentage (%)” value in series [4] came out at 95.9%.
`CCC(O)C(C)C1OC1CC(C)(O)/C=C/C=C(\C)C1OC(=O)CC(O)CCC(C)C(OC(=O)N2CCCN(CC)CC2)/C=C/C1C` (centres unmarked) [Compound 43, (8E,12E,14E)-7-((4-ethylhomopiperazin-1-yl)carbonyl)oxy-3,16,21-trihydroxy-6,10,12,16,20-pentamethyl-18,19-epoxytricosa-8,12,14-trien-11-olide]: the values for the IC50 in series [2] and in series [3] were 2.3 nM and 0.5 nM, respectively. In addition, the “WiDr human colon tumor growth inhibitory activity T/C(%)” value in series [5] came to 9%. Also, in series [6], the “Minimum relative body weight ratio” value was determined as 0.83. Moreover, the “Remaining percentage (%)” value in series [4] was determined as 95.8%.
On to `CCC(O)C(C)C1OC1CC(C)(O)/C=C/C=C(\C)C1OC(=O)CC(O)CCC(C)C(OC(=O)N2CCN(C(C)C)CC2)/C=C/C1C` (centres unmarked) [Compound 44, (8E,12E,14E)-3,16,21-trihydroxy-7-((4-isopropylpiperazin-1-yl)carbonyl)oxy-6,10,12,16,20-pentamethyl-18,19-epoxytricosa-8,12,14.-trien-11-olide], for which the results for the IC50 in series [2] and in series [3] were 2.4 nM and 0.6 nM, respectively. In addition, the “Remaining percentage (%)” value in series [4] was found to be 95.4%.
